In patent US8691822B2, “Dihydropteridinone derivatives, preparation process and pharmaceutical use thereof” (Jiangsu Hengrui Medicine Co., Ltd., priority 2009, dated 2014):
Where two headings read alike, the source gives them in different places.

Key:
[1] = Pharmacokinetics assay in rats (plasma concentration by LC/MS/MS); format: in vivo; details: SD rats, 25 mg/kg; for AUC: read-out: Area Under Curve AUC; for half-life: read-out: Half-Life t½ (converted); for MRT: read-out: Mean Residence Time MRT
Procedure: The compound 37 of the present invention was administrated intravenous injection or intragastrically to rats to determine the drug concentration in plasma at different time points by LC/MS/MS method. The pharmacokinetic behavior of the compounds of the present invention was studied and evaluated in rats.
The right amount of tested compound was dissolved in 0.5 mL of DMSO, added with 1.5 mL of 0.1 M HCl, then diluted with normal saline to 2.5 mg/mL of suspension before use.
8 Healthy adult adult SD rats, male and female in half, were divided into 2 groups. After an overnight fast, the rats were administered intragastrically or administered via tail intravenous injection at a dose of 25.0 mg/kg.
25 μL of rat plasmas taken at various time points after administration were mixed with 20 μL of internal standard solution and 150 μL methanol for 3 minutes by using a vortexer and the mixture was centrifuged for 10 minutes at 13,500 rpm. 5 μL of the supernatant was analyzed by LC-MS/MS.
Plasma concentration was used as the abscissa, the ratio of chromatographic peak area between the sample and internal standard was used as the ordinate, the linear regression was carried out by the weighted least square method (w=1/x^2). The main pharmacokinetic parameters were calculated by DAS 2.0 software.

[2] = system: human cervix cancer cells Hela; test: Plk Cell Proliferation Inhibition Assay (CCK8, 72 hours); format: cell-based; details: Hela cells highly expressing Plk
Source text: The following in vitro assay is to determine the activity of the compounds of the present invention for inhibiting the proliferation of human cervix cancer cells Hela, which has high expression of Plk.
The in vitro cellular assay described here is to determine the activity of the tested compounds for inhibiting the proliferation of cancer cells, which has high expression of Plk. The activity is represented by the […]. The general procedures for the assay are given as follows: The Hela cells highly expressing Plk (Institute of biochemistry and cell biology) were seeded to 96-well cell culture plate at a suitable concentration (exp 3000 cells/ml medium). The cells then were cultured in carbon dioxide (CO2) incubator and grew overnight. Then, the cell culture medium was replaced by fresh one with tested compounds added in it at serial concentrations (general 7 to 9 concentrations). Then the cells were put back to the incubator and cultured for continuous 72 hours. 72 hours later, the activity of the tested compounds for inhibiting the cell proliferation was determined by using CCK8 (cell counting kit-8, Dojindo, NO:CK04) method. IC50 value on tested cells were calculated by the data of inhibition rates of serial concentrations of the tested compounds.

[3] = system: xenografts of HT-116 human colon cancer; test: Therapeutic effects against xenografts of HT-116 human colon cancer in nude mice; format: in vivo; details: nude mice bearing HT-116 xenografts
Procedure: The therapeutic effect of Example 1 against xenografts of HT-116 human colon cancer in nude mice was estimated.
Preparation method: the compound of Example 1 was prepared to corresponding concentration by using normal saline.
BALB/cA-nude mice, 6 to 7 weeks old, ♀, purchased from Slaccas Experimental Animal LTD., CO.
Nude mice were hypodermic inoculated HT-116 human colon cancer cell. After tumors grew to 60-150 mm^3, mice were randomly divided into teams (d0).
The volume of tumors and the weigh of the mice were measured and recorded for 2-3 times per week.
The calculation formula of the volume of tumor (V) is: V=½×a×b^2, a: length of tumor, b: width of tumor.

[4] = both sexes, rat, plasma, po, intragastric administration
[5] = both sexes, rat, plasma, intravenous injection

Structure (SMILES): CC[C@@H]1C(=O)N(C)c2cnc(Nc3ccc(C(=O)N[C@H]4CC[C@H](N5CCN(CC6CC6)CC5)CC4)c4c3OCC4)nc2N1C(C)C [Example 37, N-[(trans)-4-[4-(Cyclopropylmethyl)piperazin-1-yl]cyclohexyl]-7-[[(7R)-7-ethyl-8-isopropyl-5-methyl-6-oxo-7H-pteridin-2-yl]amino]-2,3-dihydrobenzofuran-4-carboxamide]
- Clearance CL/F ([1]; intravenous injection): 5.5 ± 0.5 mL/min/kg
- bioavailability ([1]; both sexes, rat, plasma, oral, intragastric vs intravenous, read-out: oral bioavailability F): 59.4%
- Vd/F ([1]; both sexes, rat, plasma, po, intragastric administration, read-out: Apparent Distribution Volume Vz/F): 13.6 ± 1 L/kg
- AUC [1, 4]: 45600 ± 9230 ng·h/mL
- CL/F ([1]; both sexes, rat, plasma, po, intragastric administration, read-out: Clearance CL/F (converted)): 9.5 mL/min/kg
- half-life [1, 4]: 17.2 ± 4.4 h
- MRT [1, 4]: 26.1 ± 5 h
- Cmax ([1]; both sexes, rat, plasma, po, intragastric administration, read-out: Plasma Conc. Cmax): 1860 ± 150 ng/mL
- AUC [1, 5]: 76700 ± 6200 ng·h/mL
- half-life [1, 5]: 17.3 ± 3.3 h
- MRT [1, 5]: 22.8 ± 4.3 h
- IC50 [2]: 0.7 nM

Structure (SMILES): CC[C@@H]1C(=O)N(C)c2cnc(Nc3ccc(C(=O)NC4CCN(C)CC4)c4c3OCC4)nc2N1C1CCCC1 [Example 1, 7-[[(7R)-8-Cyclopentyl-7-ethyl-5-methyl-6-oxo-7H-pteridin-2-yl]amino]-N-(1-methyl-piperidyl)-2,3-dihydrobenzofuran-4-carboxamide]
- toxicity (in words) [3]: less toxity
- IC50 [2]: 0.9 nM

Structure (SMILES): CC[C@@H]1C(=O)N(C)c2cnc(Nc3ccc(C(=O)NC[C@@H](O)CN4CCN(C)CC4)c4c3OC(C)(C)C4)nc2N1C1CCCC1 [Example 20, 7-[[(7R)-8-Cyclopentyl-7-ethyl-5-methyl-6-oxo-7H-pteridin-2-yl]amino]-N-[(2R)-3-(4-methylpiperazin-1-yl)-2-hydroxy-propyl]-2,2-dimethyl-3H-benzofuran-4-carboxamide]
- IC50 [2]: 8 nM

Structure (SMILES): CC[C@@H]1C(=O)N(C)c2cnc(Nc3ccc(C(=O)N[C@H]4C[C@@H]5CN(CC6CC6)C[C@@H]5C4)c4c3OCC4)nc2N1C1CCCC1 [Example 13, (cis-endo)-N-[2-(Cyclopropylmethyl)-3,3a,4,5,6,6a-hexahydro-1H-cyclopenta[c]pyrrol-5-yl]-7-[[(7R)-8-cyclopentyl-7-ethyl-5-methyl-6-oxo-7H-pteridin-2-yl]amino]-2,3-dihydrobenzofuran-4-carboxamide]
- IC50 [2]: 1 nM

Structure (SMILES): CC[C@@H]1C(=O)N(C)c2cnc(Nc3ccc(C(=O)N[C@@H]4C[C@H]5CCN(C)C[C@H]5C4)c4c3OCC4)nc2N1C1CCCC1 [Example 14, (cis-endo)-N-[2-Methyl-1,3,3a,4,5,6,7,7a-octahydrocyclopenta[c]pyridin-6-yl]-7-[[(7R)-8-cyclopentyl-7-ethyl-5-methyl-6-oxo-7H-pteridin-2-yl]amino]-2,3-dihydrobenzofuran-4-carboxamide]
- IC50 [2]: 1 nM

Structure (SMILES): CC[C@@H]1C(=O)N(C)c2cnc(Nc3ccc(C(=O)N[C@@H]4C[C@@H]5CN(C)C[C@@H]5C4)c4c3OCC4)nc2N1C1CCCC1 [Example 5]
- IC50 [2]: 1 nM

Structure (SMILES): CC[C@@H]1C(=O)N(C)c2cnc(Nc3ccc(C(=O)N[C@@H]4C[C@@H]5CN(C)C[C@@H]5C4)c4c3OC(C)(C)C4)nc2N1C1CCCC1 [Example 6, (cis-exo)-N-[2-Methyl-3,3a,4,5,6,6a-hexahydro-1H-cyclopenta[c]pyrrol-5-yl]-7-[[(7R)-8-cyclopentyl-7-ethyl-5-methyl-6-oxo-7H-pteridin-2-yl]amino]-2,2-dimethyl-3H-benzofuran-4-carboxamide]
- IC50 [2]: 2 nM

Structure (SMILES): CC[C@@H]1C(=O)N(C)c2cnc(Nc3ccc(C(=O)NC[C@H](O)CN4CCN(C)CC4)c4c3OC(C)(C)C4)nc2N1C1CCCC1 [Example 21, 7-[[(7R)-8-Cyclopentyl-7-ethyl-5-methyl-6-oxo-7H-pteridin-2-yl]amino]-N-[(2S)-3-(4-methylpiperazin-1-yl)-2-hydroxy-propyl]-2,2-dimethyl-3H-benzofuran-4-carboxamide]
- IC50 [2]: 7 nM

Structure (SMILES): CC[C@@H]1C(=O)N(C)c2cnc(Nc3ccc(C(=O)NC[C@H]4CN5CCC[C@H]5CO4)c4c3OCC4)nc2N1C1CCCC1 [Example 26, N-[[(3S,8aS)-3,4,6,7,8,8a-Hexahydro-1H-pyrrolo[2,1-c][1,4]oxazin-3-yl]methyl]-7-[[(7R)-8-cyclopentyl-7-ethyl-5-methyl-6-oxo-7H-pteridin-2-yl]amino]-2,3-dihydrobenzofuran-4-carboxamide]
- IC50 [2]: 3 nM

Structure (SMILES): CC[C@@H]1C(=O)N(C)c2cnc(Nc3ccc(C(=O)NC[C@@H](CN4CCN(CC5CC5)CC4)OC)c4c3OCC4)nc2N1C1CCCC1 [Example 35, 7-[[(7R)-8-Cyclopentyl-7-ethyl-5-methyl-6-oxo-7H-pteridin-2-yl]amino]-N-[(2S)-3-[4-(cyclopropylmethyl)piperazin-1-yl]-2-methoxy-propyl]-2,3-dihydrobenzofuran-4-carboxamide]
- IC50 [2]: 2 nM

Structure (SMILES): CC[C@@H]1C(=O)N(C)c2cnc(Nc3ccc(C(=O)N[C@H]4CC[C@@H](N5CCN(CC6CC6)CC5)CC4)c4c3OCC4)nc2N1C(C)C [Example 44, N-[(cis)-4-[4-(Cyclopropylmethyl)piperazin-1-yl]cyclohexyl]-7-[[(7R)-7-ethyl-8-isopropyl-5-methyl-6-oxo-7H-pteridin-2-yl]amino]-2,3-dihydrobenzofuran-4-carboxamide]
- IC50 [2]: 5 nM

Structure (SMILES): CC[C@@H]1C(=O)N(C)c2cnc(Nc3ccc(C(=O)NC[C@@H](CN4CCN(CC5CC5)CC4)OC)c4c3OCC4)nc2N1C(C)C [Example 36, N-[(2S)-3-[4-(Cyclopropylmethyl)piperazin-1-yl]-2-methoxy-propyl]-7-[[(7R)-7-ethyl-8-isopropyl-5-methyl-6-oxo-7H-pteridin-2-yl]amino]-2,3-dihydrobenzofuran-4-carboxamide]
- IC50 [2]: 7 nM

Structure (SMILES): CC[C@@H]1C(=O)N(C)c2cnc(Nc3ccc(C(=O)N[C@H]4CC[C@@H](N5CCN(CC6CC6)CC5)CC4)c4c3OCC4)nc2N1C1CCCC1 [Example 12, 7-[[(7R)-8-Cyclopentyl-7-ethyl-5-methyl-6-oxo-7H-pteridin-2-yl]amino]-N-[(cis)-4-[4-(cyclopropylmethyl)piperazin-1-yl]cyclohexyl]-2,3-dihydrobenzofuran-4-carboxamide]
- IC50 [2]: 0.8 nM

Structure (SMILES): CC[C@@H]1C(=O)N(C)c2cnc(Nc3ccc(C(=O)NC[C@@H](O)CN4CCN(C)CC4)c4c3OCC4)nc2N1C1CCCC1 [Example 25, 7-[[(7R)-8-Cyclopentyl-7-ethyl-5-methyl-6-oxo-7H-pteridin-2-yl]amino]-N-[(2R)-2-hydroxy-3-(4-methylpiperazin-1-yl)propyl]-2,3-dihydrobenzofuran-4-carboxamide]
- IC50 [2]: 3 nM

Structure (SMILES): CC[C@@H]1C(=O)N(C)c2cnc(Nc3ccc(C(=O)NC4CCN(C)CC4)c4c3OCC4)nc2N1C(C)C [Example 22, 7-[[(7R)-7-Ethyl-8-isopropyl-5-methyl-6-oxo-7H-pteridin-2-yl]amino]-N-(1-methyl-4-piperidyl)-2,3-dihydrobenzofuran-4-carboxamide]
- IC50 [2]: 2 nM

Structure (SMILES): CC[C@@H]1C(=O)N(C)c2cnc(Nc3ccc(C(=O)NC4CCN(C)CC4)c4c3OC(CN(C)C)C4)nc2N1C1CCCC1 (stereo partly drawn) [Example 29, 7-[[(7R)-8-Cyclopentyl-7-ethyl-5-methyl-6-oxo-7H-pteridin-2-yl]amino]-2-(dimethylaminomethyl)-N-(1-methyl-4-piperidyl)-2,3-dihydrobenzofuran-4-carboxamide]
- IC50 [2]: 30 nM
